In brackets after ≈: the same amount, converted by molar mass.
How the values were obtained:
Type in all cases: cell-based
[1] = tested on: Bacillus subtilis ATCC 6633; assay: Broth microdilution MIC/MBC; conditions: for MBC: ATCC6633; for MIC: ATCC6633, read-out: MIC
Outline: (§1)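 Minimal inhibitory concentrations are determined by broth microdilution following EUCAST and CLSI. DMSO-dissolved compounds are serially halved from 1000 to 0.488 µg/ml final; inocula are 0.5 McFarland.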

[2] = tested on: Staphylococcus aureus ATCC 43300; assay: Broth microdilution MIC/MBC; conditions: Staphylococcus aureus ATCC 43300 (MRSA)
Outline: as §1

[3] = tested on: Salmonella typhimurium ATCC 14028; assay: Broth microdilution MIC/MBC
Outline: as §1

[4] = tested on: Staphylococcus epidermidis ATCC 12228; assay: Broth microdilution MIC/MBC; conditions: for MBC: ATCC12228; for MIC: ATCC12228, read-out: MIC
Outline: as §1

[5] = tested on: Micrococcus luteus ATCC 10240; assay: Broth microdilution MIC/MBC; conditions: for MBC: ATCC10240; for MIC: ATCC10240, read-out: MIC
Outline: as §1

[6] = tested on: Proteus mirabilis ATCC 12453; assay: Broth microdilution MIC/MBC
Outline: as §1

[7] = tested on: Pseudomonas aeruginosa ATCC 9027; assay: Broth microdilution MIC/MBC
Outline: as §1

[8] = tested on: Staphylococcus aureus ATCC 29213; assay: Broth microdilution MIC/MBC; conditions: for MBC / MIC: ATCC29213
Outline: as §1

[9] = tested on: Candida glabrata ATCC 90030; assay: Broth microdilution MIC/MFC; conditions: for MIC: ATCC90030, read-out: MIC
Outline: as §1

[10] = tested on: Candida albicans ATCC 2091; assay: Broth microdilution MIC/MFC; conditions: for MFC: ATCC2091, read-out: MFC; for MIC: ATCC2091, read-out: MIC
Outline: as §1

[11] = tested on: Candida krusei ATCC 14243; assay: Broth microdilution MIC/MFC; conditions: for MFC / MIC: Pichia kudriavzevii; for MFC: ATCC14243, read-out: MFC; for MIC: ATCC14243, read-out: MIC
Outline: as §1

[12] = tested on: Candida albicans ATCC 10231; assay: Broth microdilution MIC/MFC; conditions: for MFC: ATCC10231, read-out: MFC; for MIC: ATCC10231, read-out: MIC
Outline: as §1

[13] = tested on: Candida parapsilosis ATCC 22019; assay: Broth microdilution MIC/MFC; conditions: for MFC / MIC: Lodderomyces parapsilosis; for MFC: ATCC22019, read-out: MFC; for MIC: ATCC22019, read-out: MIC
Outline: as §1

| Compound | MBC/MIC [1] | MBC [1] [µg/mL] | MIC [1] [µg/mL] | MIC [2] [µg/mL] | MIC ([3]; Salmonella enterica) [µg/mL] | MIC [4] [µg/mL] | MBC/MIC [5] | MBC [5] [µg/mL] | MIC [5] [µg/mL] | MIC ([6]; ATCC12453) [µg/mL] | MIC ([7]; ATCC9027) [µg/mL] | MIC [8] [µg/mL] | MIC ([9]; Nakaseomyces glabratus) [µg/mL] | MFC/MIC [10] | MFC [10] [µg/mL] | MIC [10] [µg/mL] | MFC/MIC [11] | MFC [11] [µg/mL] | MIC [11] [µg/mL] | MFC/MIC [12] | other results |
| --- | --- | --- | --- | --- | --- | --- | --- | --- | --- | --- | --- | --- | --- | --- | --- | --- | --- | --- | --- | --- | --- |
| O=C(N/N=C/c1ccc([N+](=O)[O-])cc1)c1ccc(O)cc1O [Compound 21, 2,4-dihydroxy-N-[(4-nitrophenyl)methylidene]benzohydrazide] | > 2 | > 1000 | 500 (≈ 1.66 mM) | 500 (≈ 1.66 mM) | > 1000 | 500 (≈ 1.66 mM) | > 1 | > 1000 | 1000 (≈ 3.32 mM) | > 1000 | > 1000 | 500 (≈ 1.66 mM) | > 1000 | > 1 | > 1000 | 1000 (≈ 3.32 mM) | > 2 | > 1000 | 500 (≈ 1.66 mM) | > 2 | MBC [2]: > 1000 µg/mL; MBC/MIC [2]: > 2; MBC/MIC [4]: > 2; MBC [4]: > 1000 µg/mL; MBC/MIC [8]: > 2; MBC [8]: > 1000 µg/mL; MFC [12]: > 1000 µg/mL; MIC [12]: 500 µg/mL (≈ 1.66 mM); MFC/MIC [13]: > 2; MFC [13]: > 1000 µg/mL; MIC [13]: 500 µg/mL (≈ 1.66 mM) |
| O=C(N/N=C/c1ccccc1F)c1ccc(O)cc1O [Compound 24, N-[(2-fluorophenyl)methylidene]-2,4-dihydroxybenzohydrazide] | > 2 | > 1000 | 500 (≈ 1.82 mM) | > 1000 | > 1000 | > 1000 | > 1 | > 1000 | 1000 (≈ 3.65 mM) | > 1000 | > 1000 | > 1000 | > 1000 | > 1 | > 1000 | 1000 (≈ 3.65 mM) | > 1 | > 1000 | 1000 (≈ 3.65 mM) | > 1 | MFC [12]: > 1000 µg/mL; MIC [12]: 1000 µg/mL (≈ 3.65 mM); MFC/MIC [13]: > 1; MFC [13]: > 1000 µg/mL; MIC [13]: 1000 µg/mL (≈ 3.65 mM) |
| O=C(N/N=C/c1ccccc1[N+](=O)[O-])c1ccc(O)cc1O [Compound 19, 2,4-dihydroxy-N-[(2-nitrophenyl)methylidene]benzohydrazide] | > 4 | > 1000 | 250 (≈ 0.83 mM) | 500 (≈ 1.66 mM) | 1000 (≈ 3.32 mM) | 500 (≈ 1.66 mM) | > 1 | > 1000 | 1000 (≈ 3.32 mM) | 1000 (≈ 3.32 mM) | 1000 (≈ 3.32 mM) | 1000 (≈ 3.32 mM) | 500 (≈ 1.66 mM) | > 2 | > 1000 | 500 (≈ 1.66 mM) | > 2 | > 1000 | 500 (≈ 1.66 mM) | > 4 | MBC [2]: > 1000 µg/mL; MBC/MIC [2]: > 2; MBC/MIC [3]: > 1; MBC ([3]; Salmonella enterica): > 1000 µg/mL; MBC/MIC [4]: > 2; MBC [4]: > 1000 µg/mL; MBC/MIC [6]: > 1; MBC ([6]; ATCC12453): > 1000 µg/mL; MBC/MIC [7]: > 1; MBC ([7]; ATCC9027): > 1000 µg/mL; MBC/MIC [8]: > 1; MBC [8]: > 1000 µg/mL; MFC/MIC [9]: > 2; MFC ([9]; Nakaseomyces glabratus, ATCC90030, read-out: MFC): > 1000 µg/mL; MFC [12]: > 1000 µg/mL; MIC [12]: 250 µg/mL (≈ 0.83 mM); MFC/MIC [13]: > 4; MFC [13]: > 1000 µg/mL; MIC [13]: 250 µg/mL (≈ 0.83 mM) |

Reference: article PMC10743905, “Design, Synthesis, and In Vitro and In Vivo Bioactivity Studies of Hydrazide–Hydrazones of 2,4-Dihydroxybenzoic Acid” (International Journal of Molecular Sciences, 2023)
